From US9328141B2, “Polypeptides for the treatment or prevention of cancer and uses thereof” (WUHAN KATYGEN PHARMACEUTICALS, INC., priority 2010, dated 2016)

System: colon tumor 26
Test: Anti-cancer effect in vivo, transplanted colon tumor 26 in mice
Set-up: species or system BALB/c male mouse
Details: cisplatin 1 mg/kg ipx 5, Day 11
Description: The tumors were excised and weighed.
Combine index (CI), CI=AB/(A×B). AB is the T/C of the combined effects of two drugs, A, B either is the T/C of the effect of one drug (when CI<1, these two drugs have combination).

N.N.[Cl][Pt][Cl] [Cisplatin, cisplatin]
The inhibitive rate: 44% | tumor weight x ± s: 1.39 ± 0.39 g
